The supplement of paper PMC4862054

Key:
Conditions in all cases: incubation time: 72 h
[1] = tested on: BT-474; assay: normalised viability (% of control), CellTiter-Blue; higher = more viable cells (about 100 = DMSO control)
Method in brief: (§1)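 Breast cancer cell lines were treated for 72 h in 384-well format and measured by CellTiter-Blue fluorescence at 560/590 nm. Results were normalised per plate to vehicle (100) and a positive kill control (0). The entry is normalised viability at a single listed concentration of the series.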

[2] = tested on: CAL-120; assay: as above
Method in brief: as §1

[3] = tested on: CAL-85-1; assay: as above
Method in brief: as §1

[4] = tested on: HCC1937; assay: as above
Method in brief: as §1

[5] = tested on: HDQ-P1; assay: as above
Method in brief: as §1

[6] = tested on: MDA-MB-436; assay: as above
Method in brief: as §1

[7] = tested on: MDA-MB-453; assay: as above
Method in brief: as §1

[8] = tested on: MFM-223; assay: as above
Method in brief: as §1

[9] = tested on: SK-BR-3; assay: as above
Method in brief: as §1

[10] = tested on: BT-474; assay: normalised response (% of control), CellTox Green; higher = less cell death (100 = DMSO, 0 = benzethonium chloride kill control)
Method in brief: (§2)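 Each entry is the normalised signal at a single concentration within a series. The series comprised 5 concentrations in 10-fold steps over a compound-specific 10,000-fold range, placed in 384-well plates into which breast cancer cell lines were seeded as 20 µl suspension and incubated 72 h. CellTox Green (485/520 nm) fluorescence and then CellTiter-Glo luminescence were read, with signals normalised per plate to 0.1 % DMSO (100) and a positive kill control (0).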

[11] = tested on: BT-549; assay: as above
Method in brief: as §2

[12] = tested on: CAL-120; assay: as above
Method in brief: as §2

[13] = tested on: CAL-148; assay: as above
Method in brief: as §2

[14] = tested on: CAL-51; assay: as above
Method in brief: as §2

[15] = tested on: CAL-85-1; assay: as above
Method in brief: as §2

[16] = tested on: DU-4475; assay: as above
Method in brief: as §2

[17] = tested on: HCC1143; assay: as above
Method in brief: as §2

[18] = tested on: HCC1599; assay: as above
Method in brief: as §2

[19] = tested on: HCC1937; assay: as above
Method in brief: as §2

[20] = tested on: Hs578T; assay: as above
Method in brief: as §2

[21] = tested on: MCF-10A; assay: as above
Method in brief: as §2

[22] = tested on: MDA-MB-231; assay: as above
Method in brief: as §2

[23] = tested on: MDA-MB-436; assay: as above
Method in brief: as §2

[24] = tested on: MDA-MB-453; assay: as above
Method in brief: as §2

[25] = tested on: MDA-MB-468; assay: as above
Method in brief: as §2

[26] = tested on: MFM-223; assay: as above
Method in brief: as §2

## O=C(c1ccc(OCCN2CCCCC2)cc1)c1c(-c2ccc(O)cc2)sc2cc(O)ccc12 [Raloxifene]
[1]; 10 nM
  normalised viability: 100%
[1]; 1000 nM
  normalised viability: 103%
[1]; 10000 nM
  normalised viability: 113%
[2]; 10 nM
  normalised viability: 99.6%
[2]; 1000 nM
  normalised viability: 98.2%
[2]; 10000 nM
  normalised viability: 91.8%
[3]; 3 nM
  normalised viability: 100%
[3]; 30 nM
  normalised viability: 94.5%
[3]; 100 nM
  normalised viability: 98%
[4]; 10 nM
  normalised viability: 89.3%
[4]; 1000 nM
  normalised viability: 93.3%
[4]; 10000 nM
  normalised viability: 96.2%
[5]; 3 nM
  normalised viability: 90.2%
[5]; 30 nM
  normalised viability: 97.5%
[5]; 100 nM
  normalised viability: 107%
[6]; 10 nM
  normalised viability: 104%
[6]; 1000 nM
  normalised viability: 86.3%
[6]; 10000 nM
  normalised viability: 76.2%
[7]; 3 nM
  normalised viability: 106%
[7]; 30 nM
  normalised viability: 97.5%
[7]; 100 nM
  normalised viability: 92.4%
[8]; 10 nM
  normalised viability: 99.8%
[8]; 1000 nM
  normalised viability: 86.2%
[8]; 10000 nM
  normalised viability: 80.6%
[9]; 10 nM
  normalised viability: 94%
[9]; 1000 nM
  normalised viability: 94.7%
[9]; 10000 nM
  normalised viability: 103%

## Cn1c(=O)c(F)c(Nc2ccc(I)cc2F)c2c(=O)n(C[C@@H](O)CO)cnc21 [TAK-733]
[1]; 1 nM
  normalised viability: 123%
[1]; 100 nM
  normalised viability: 121%
[1]; 1000 nM
  normalised viability: 131%
[2]; 1 nM
  normalised viability: 92.4%
[2]; 100 nM
  normalised viability: 74.7%
[2]; 1000 nM
  normalised viability: 56.3%
[3]; 0.3 nM
  normalised viability: 93.5%
[3]; 3 nM
  normalised viability: 97.8%
[3]; 10 nM
  normalised viability: 96.1%
[4]; 1 nM
  normalised viability: 121%
[4]; 100 nM
  normalised viability: 104%
[4]; 1000 nM
  normalised viability: 74%
[5]; 0.3 nM
  normalised viability: 113%
[5]; 3 nM
  normalised viability: 118%
[5]; 10 nM
  normalised viability: 91.6%
[6]; 1 nM
  normalised viability: 112%
[6]; 100 nM
  normalised viability: 84.1%
[6]; 1000 nM
  normalised viability: 88.9%
[7]; 0.3 nM
  normalised viability: 114%
[7]; 3 nM
  normalised viability: 104%
[7]; 10 nM
  normalised viability: 115%
[8]; 1 nM
  normalised viability: 90.4%
[8]; 100 nM
  normalised viability: 79.8%
[8]; 1000 nM
  normalised viability: 64.5%
[9]; 1 nM
  normalised viability: 106%
[9]; 100 nM
  normalised viability: 102%
[9]; 1000 nM
  normalised viability: 112%

## CCS(=O)(=O)c1cccc(-c2cc(C(=O)NC3CCN(C)CC3)c(C)c3[nH]c4ncc(C)cc4c23)c1 [TAK-901]
[1]; 1 nM
  normalised viability: 131%
[1]; 100 nM
  normalised viability: 107%
[1]; 1000 nM
  normalised viability: 78.6%
[2]; 1 nM
  normalised viability: 84.4%
[2]; 100 nM
  normalised viability: 50.5%
[2]; 1000 nM
  normalised viability: 13.2%
[3]; 0.3 nM
  normalised viability: 89.9%
[3]; 3 nM
  normalised viability: 86.3%
[3]; 10 nM
  normalised viability: 91.2%
[4]; 1 nM
  normalised viability: 116%
[4]; 100 nM
  normalised viability: 80.7%
[4]; 1000 nM
  normalised viability: 35.2%
[5]; 0.3 nM
  normalised viability: 111%
[5]; 3 nM
  normalised viability: 109%
[5]; 10 nM
  normalised viability: 113%
[6]; 1 nM
  normalised viability: 116%
[6]; 100 nM
  normalised viability: 96.1%
[6]; 1000 nM
  normalised viability: 70.6%
[7]; 0.3 nM
  normalised viability: 102%
[7]; 3 nM
  normalised viability: 111%
[7]; 10 nM
  normalised viability: 83.5%
[8]; 1 nM
  normalised viability: 96%
[8]; 100 nM
  normalised viability: 55%
[8]; 1000 nM
  normalised viability: 34%
[9]; 1 nM
  normalised viability: 98.9%
[9]; 100 nM
  normalised viability: 93.8%
[9]; 1000 nM
  normalised viability: 52%

## CCS(=O)(=O)c1cccc(-c2cc(C(=O)NC3CCN(C)CC3)c(C)c3[nH]c4ncc(C)cc4c23)c1 [TAK-901] (100 nM)
[10]
  normalised response: 101%
[11]
  normalised response: 116%
[12]
  normalised response: 102%
[13]
  normalised response: 42%
[14]
  normalised response: 53.8%
[15]
  normalised response: 97.9%
[16]
  normalised response: 100%
[17]
  normalised response: 118%
[18]
  normalised response: 99.7%
[19]
  normalised response: 91.5%
[20]
  normalised response: 76.4%
[21]
  normalised response: 107%
[22]
  normalised response: 92.3%
[23]
  normalised response: 96.8%
[24]
  normalised response: 107%
[25]
  normalised response: -31.9%
[26]
  normalised response: 94%

## c1ccc(C2CN3CCSC3=N2)cc1 (stereo not drawn) [Tetramisole]
[1]; 10 nM
  normalised viability: 111%
[1]; 1000 nM
  normalised viability: 137%
[1]; 10000 nM
  normalised viability: 107%
[2]; 10 nM
  normalised viability: 110%
[2]; 1000 nM
  normalised viability: 112%
[2]; 10000 nM
  normalised viability: 105%
[3]; 3 nM
  normalised viability: 104%
[3]; 30 nM
  normalised viability: 92.8%
[3]; 100 nM
  normalised viability: 99.4%
[4]; 10 nM
  normalised viability: 117%
[4]; 1000 nM
  normalised viability: 105%
[4]; 10000 nM
  normalised viability: 103%
[5]; 3 nM
  normalised viability: 117%
[5]; 30 nM
  normalised viability: 116%
[5]; 100 nM
  normalised viability: 109%
[6]; 10 nM
  normalised viability: 110%
[6]; 1000 nM
  normalised viability: 111%
[6]; 10000 nM
  normalised viability: 113%
[7]; 3 nM
  normalised viability: 93.6%
[7]; 30 nM
  normalised viability: 104%
[7]; 100 nM
  normalised viability: 98.5%
[8]; 10 nM
  normalised viability: 101%
[8]; 1000 nM
  normalised viability: 96.4%
[8]; 10000 nM
  normalised viability: 90.3%
[9]; 10 nM
  normalised viability: 107%
[9]; 1000 nM
  normalised viability: 101%
[9]; 10000 nM
  normalised viability: 105%

## CCCC(CCC)C(=O)O [Valproic acid]
[1]; 10 nM
  normalised viability: 113%
[1]; 1000 nM
  normalised viability: 124%
[1]; 10000 nM
  normalised viability: 121%
[2]; 10 nM
  normalised viability: 104%
[2]; 1000 nM
  normalised viability: 104%
[2]; 10000 nM
  normalised viability: 93.9%
[3]; 3 nM
  normalised viability: 86.4%
[3]; 30 nM
  normalised viability: 84.7%
[3]; 100 nM
  normalised viability: 96.6%
[4]; 10 nM
  normalised viability: 126%
[4]; 1000 nM
  normalised viability: 86%
[4]; 10000 nM
  normalised viability: 92.6%
[5]; 3 nM
  normalised viability: 124%
[5]; 30 nM
  normalised viability: 116%
[5]; 100 nM
  normalised viability: 122%
[6]; 10 nM
  normalised viability: 96.6%
[6]; 1000 nM
  normalised viability: 89%
[6]; 10000 nM
  normalised viability: 132%
[7]; 3 nM
  normalised viability: 112%
[7]; 30 nM
  normalised viability: 102%
[7]; 100 nM
  normalised viability: 109%
[8]; 10 nM
  normalised viability: 103%
[8]; 1000 nM
  normalised viability: 87.2%
[8]; 10000 nM
  normalised viability: 97.3%
[9]; 10 nM
  normalised viability: 102%
[9]; 1000 nM
  normalised viability: 107%
[9]; 10000 nM
  normalised viability: 95.9%

## CCCC(CCC)C(=O)O [Valproic acid] (10000 nM)
[10]
  normalised response: 85%
[11]
  normalised response: 117%
[12]
  normalised response: 106%
[13]
  normalised response: 102%
[14]
  normalised response: 95.7%
[15]
  normalised response: 111%
[16]
  normalised response: 104%
[17]
  normalised response: 94.8%
[18]
  normalised response: 93.2%
[19]
  normalised response: 76%
[20]
  normalised response: 100%
[21]
  normalised response: 107%
[23]
  normalised response: 117%
[24]
  normalised response: 107%
[25]
  normalised response: 86.2%
[26]
  normalised response: 101%
